In patent publication US5079231A, “Immunostimulating peptides, a process for their preparation and pharmaceutical compositions containing them” (Ellem Industria Farmaceutica S.p.A., priority 1988, dated 1992):
No end group written: not given here.

Legend:
T-lymphocytes = conditions: known peptides, earlier patent applications and literature; cited from earlier work
[1] = known tripeptides; cited from earlier work
[2] = Resistance to the in vitro simulated gastric ambient; assay type: in vitro ADME; conditions: 37° C., 3 hours, gastric simulated juice USP XXl (HCl+pepsin)
Description: Resistance to the in vitro simulated gastric ambient
The hexapeptides Arg-Lys-Glu-Arg-Ala-Arg and Arg-Ala-Arg-Arg-Lys-Glu are stable at 37° C. for 3 hours in in vitro simulated gastric ambient using the gastric simulated juice USP XXl (HCl+pepsin).

Resistance to the in vitro simulated gastric ambient [2] | Substance | immunostimulating activity (maturation and functionality of T-lymphocytes) (T-lymphocytes) | stability to the in vitro simulated gastric juice [1]
 | Arg-Ala-Arg | endowed with immunostimulating activity | stable
 | Arg-Gly-Asp | displays a similar behaviour | 
 | Arg-Lys-Asp | displays a similar behaviour | 
 | Arg-Lys-Glu | has immunostimulating properties | stable
stable | RARRKE [ARG--ALA--ARG--ARG--LYS--GLU, Arg-Ala-Arg-Arg-Lys-Glu] |  | 
stable | RKERAR [ARG--LYS--GLU--ARG--ALA--ARG, Arg-Lys-Glu-Arg-Ala-Arg] |  | 
